Laboratory results reported in ChEMBL document CHEMBL1287741, “Synthesis, antiproliferative activity in cancer cells and theoretical studies of novel 6α,7β-dihydroxyvouacapan-17β-oic acid Mannich base derivatives” (2010).
Converted amounts (≈) assume the structure as drawn.

Key:
Type in all cases: functional
NCI-H460 = experiment: Growth inhibition of human NCI-H460 cells after 48 hrs by sulforhodamine B assay; details: NCI-H460, 48 h
786-0 = experiment: Growth inhibition of human 786-0 cells after 48 hrs by sulforhodamine B assay; details: 786-0, 48 h
PC-3 = experiment: Growth inhibition of human PC3 cells after 48 hrs by sulforhodamine B assay; details: PC-3, 48 h
UACC-62 = experiment: Growth inhibition of human UACC62 cells after 48 hrs by sulforhodamine B assay; details: UACC-62, 48 h
NCI/ADR-RES = experiment: Growth inhibition of human NCI-ADR-RES cells after 48 hrs by sulforhodamine B assay
K562 = experiment: Growth inhibition of human K562 cells after 48 hrs by sulforhodamine B assay; details: K562, 48 h
HT-29 = experiment: Growth inhibition of human HT-29 cells after 48 hrs by sulforhodamine B assay; details: HT-29, 48 h
MCF7 = experiment: Growth inhibition of human MCF7 cells after 48 hrs by sulforhodamine B assay; details: MCF7, 48 h
OVCAR-3 = experiment: Growth inhibition of human OVCAR-3 cells after 48 hrs by sulforhodamine B assay; details: OVCAR-3, 48 h

Compound	GI50 (NCI-H460) [µg/mL]	TGI (NCI-H460) [µg/mL]	GI50 (786-0) [µg/mL]	TGI (786-0) [µg/mL]	GI50 (PC-3) [µg/mL]	TGI (PC-3) [µg/mL]	GI50 (UACC-62) [µg/mL]	TGI (UACC-62) [µg/mL]	GI50 (NCI/ADR-RES) [µg/mL]	TGI (NCI/ADR-RES) [µg/mL]	GI50 (K562) [µg/mL]	TGI (K562) [µg/mL]	GI50 (HT-29) [µg/mL]	TGI (HT-29) [µg/mL]	GI50 (MCF7) [µg/mL]	TGI (MCF7) [µg/mL]	GI50 (OVCAR-3) [µg/mL]	TGI (OVCAR-3) [µg/mL]
CC1(C)CCC[C@@]2(C)C1[C@@H](O)[C@@H]1OC(=O)[C@@H]3c4ccoc4C[C@H]2[C@@H]13 (some centres undefined)	2.53 (≈ 7.66 µM)	12.4 (≈ 37.7 µM)	8.87 (≈ 26.8 µM)	37.3 (≈ 113 µM)	30.8 (≈ 93.3 µM)	91.9 (≈ 278 µM)	5.19 (≈ 15.7 µM)	30 (≈ 90.8 µM)	0.35 (≈ 1.06 µM)	> 250	2.08 (≈ 6.29 µM)	> 250	52.5 (≈ 159 µM)	> 250	27.7 (≈ 83.7 µM)	214 (≈ 647 µM)	0.52 (≈ 1.57 µM)	8.82 (≈ 26.7 µM)
CCN(CC)Cc1cc2c(o1)C[C@H]1[C@H]3[C@@H](OC(=O)[C@H]23)[C@H](O)[C@H]2C(C)(C)CCC[C@]12C	1.35 (≈ 3.25 µM)	3.23 (≈ 7.77 µM)	2.23 (≈ 5.37 µM)	2.49 (≈ 5.99 µM)	0.28 (≈ 0.674 µM)	0.58 (≈ 1.4 µM)	0.57 (≈ 1.37 µM)	2.55 (≈ 6.14 µM)	3.12 (≈ 7.51 µM)	8.15 (≈ 19.6 µM)	< 0.25	3.01 (≈ 7.24 µM)	0.32 (≈ 0.77 µM)	1.14 (≈ 2.74 µM)	0.27 (≈ 0.65 µM)	1.44 (≈ 3.47 µM)	2.5 (≈ 6.02 µM)	5.62 (≈ 13.5 µM)
CC(C)CN(Cc1cc2c(o1)C[C@H]1[C@H]3[C@@H](OC(=O)[C@H]23)[C@H](O)[C@H]2C(C)(C)CCC[C@]12C)CC(C)C	0.29 (≈ 0.615 µM)	3.2 (≈ 6.78 µM)	2.5 (≈ 5.3 µM)	16.6 (≈ 35.3 µM)	0.98 (≈ 2.08 µM)	4.06 (≈ 8.61 µM)	0.86 (≈ 1.82 µM)	5.27 (≈ 11.2 µM)	0.39 (≈ 0.827 µM)	5.39 (≈ 11.4 µM)	5.06 (≈ 10.7 µM)	86.1 (≈ 182 µM)	0.67 (≈ 1.42 µM)	6.91 (≈ 14.6 µM)	0.69 (≈ 1.46 µM)	7.4 (≈ 15.7 µM)	0.28 (≈ 0.594 µM)	1.86 (≈ 3.94 µM)
CCCN(CCC)Cc1cc2c(o1)C[C@H]1[C@H]3[C@@H](OC(=O)[C@H]23)[C@H](O)[C@H]2C(C)(C)CCC[C@]12C	2.96 (≈ 6.67 µM)	6.01 (≈ 13.5 µM)	2.5 (≈ 5.64 µM)	3.72 (≈ 8.39 µM)	2.4 (≈ 5.41 µM)	3.83 (≈ 8.63 µM)	2.76 (≈ 6.22 µM)	4.96 (≈ 11.2 µM)	2.64 (≈ 5.95 µM)	5.53 (≈ 12.5 µM)	2.77 (≈ 6.24 µM)	8.87 (≈ 20 µM)	2.33 (≈ 5.25 µM)	3.35 (≈ 7.55 µM)	2.5 (≈ 5.64 µM)	5.31 (≈ 12 µM)	2.36 (≈ 5.32 µM)	3.9 (≈ 8.79 µM)
CC1(C)CCC[C@]2(C)[C@H]3Cc4oc(CN5CCCCC5)cc4[C@H]4C(=O)O[C@@H]([C@H](O)[C@@H]12)[C@@H]43	2.5 (≈ 5.85 µM)	4.64 (≈ 10.9 µM)	2.31 (≈ 5.4 µM)	4.11 (≈ 9.61 µM)	0.27 (≈ 0.631 µM)	0.78 (≈ 1.82 µM)	2.44 (≈ 5.71 µM)	3.96 (≈ 9.26 µM)	2.65 (≈ 6.2 µM)	7.1 (≈ 16.6 µM)	0.32 (≈ 0.748 µM)	4.55 (≈ 10.6 µM)	1.76 (≈ 4.12 µM)	2.23 (≈ 5.22 µM)	0.88 (≈ 2.06 µM)	3.82 (≈ 8.93 µM)	2.37 (≈ 5.54 µM)	4.36 (≈ 10.2 µM)
COc1cccc2c1C(=O)c1c(O)c3c(c(O)c1C2=O)C[C@@](O)(C(=O)CO)C[C@@H]3O[C@H]1C[C@H](N)[C@H](O)[C@H](C)O1 [DOXORUBICIN]	< 0.03	0.9 (≈ 1.66 µM)	0.04 (≈ 0.0736 µM)	2.67 (≈ 4.91 µM)	0.28 (≈ 0.515 µM)	5.85 (≈ 10.8 µM)	0.09 (≈ 0.166 µM)	0.33 (≈ 0.607 µM)	0.33 (≈ 0.607 µM)	6.6 (≈ 12.1 µM)	0.4 (≈ 0.736 µM)	20.5 (≈ 37.7 µM)	0.07 (≈ 0.129 µM)	3.9 (≈ 7.18 µM)	0.03 (≈ 0.0552 µM)	3.3 (≈ 6.07 µM)	0.08 (≈ 0.147 µM)	2.95 (≈ 5.43 µM)
CC1(C)CCC[C@]2(C)[C@H]3Cc4oc(CN5CCOCC5)cc4[C@H]4C(=O)O[C@@H]([C@H](O)[C@@H]12)[C@@H]43	2.69 (≈ 6.26 µM)	4.05 (≈ 9.43 µM)	2.37 (≈ 5.52 µM)	4.04 (≈ 9.41 µM)	0.27 (≈ 0.629 µM)	1.27 (≈ 2.96 µM)	2.5 (≈ 5.82 µM)	4.36 (≈ 10.1 µM)	2.73 (≈ 6.36 µM)	6.34 (≈ 14.8 µM)	2.39 (≈ 5.56 µM)	8.24 (≈ 19.2 µM)	1.68 (≈ 3.91 µM)	3.68 (≈ 8.57 µM)	2.45 (≈ 5.7 µM)	4.77 (≈ 11.1 µM)	2.6 (≈ 6.05 µM)	8.05 (≈ 18.7 µM)
CC1(C)CCC[C@]2(C)[C@H]3Cc4oc(CN5CCCC5)cc4[C@H]4C(=O)O[C@@H]([C@H](O)[C@@H]12)[C@@H]43	2.5 (≈ 6.05 µM)	4.94 (≈ 11.9 µM)	0.76 (≈ 1.84 µM)	3.98 (≈ 9.62 µM)	0.34 (≈ 0.822 µM)	1.69 (≈ 4.09 µM)	0.78 (≈ 1.89 µM)	3.05 (≈ 7.38 µM)	2.5 (≈ 6.05 µM)	6.18 (≈ 14.9 µM)	1.58 (≈ 3.82 µM)	23.2 (≈ 56.1 µM)	0.3 (≈ 0.725 µM)	1.61 (≈ 3.89 µM)	1.81 (≈ 4.38 µM)	3.86 (≈ 9.33 µM)	2.5 (≈ 6.05 µM)	5.28 (≈ 12.8 µM)
